Assay results taken from patent US8168681B2, “Amidoacetonitrile compounds and pesticidal composition thereof” (Novartis AG, priority 2008, dated 2012).

What was measured:
Haemonchus contortus [1] = assay: In-vivo test on Mongolian gerbils using peroral application; design: species or system Mongolian gerbils (Meriones unguiculatus); details: repeated test 2a, gerbil, 0.32 mg/kg
Protocol: (§1) Six to eight week old Mongolian gerbils are infected through a stomach tube with ca. 2000 third instar larvae each of T. colubriformis and H. contortus. 6 days after infection, the gerbils are treated by peroral application with the test compounds, dissolved in a mixture of 2 parts DMSO and 1 part polyethylene glycol (PEG 400). On day 9 (3 days after treatment), when most of the H. contortus that are still present are late 4th instar larvae and most of the T. colubriformis are immature adults, the gerbils are killed in order to count the worms. The efficacy is calculated as the % reduction of the number of worms in each gerbil, compared with the geometric average of number of worms from 6 infected and untreated gerbils.
(§2) The above described in-vivo test on Trichostrongylus colubriformis (Tc) and Haemonchus contortus ([…]) was repeated with compounds 1.2, 1.3 and 1.5 from Table 1 and with the compounds of Examples 1a and 3a on pages 22-25 of WO 2008/96231.

[2] = tested on: Trichostrongylus colubriformis; assay: as above; design: species or system Mongolian gerbils (Meriones unguiculatus); details: repeated test 2a, gerbil, 0.32 mg/kg
Protocol: as §1, §2

Haemonchus contortus [3] = assay: Activity in vitro (egg hatch / larval development, 96-well agar plate); details: 0.1 ppm; 6 days at 25° C.; reduced egg hatch, reduced development of L3, or paralysis & death of larvae
Protocol: (§3) Freshly harvested and cleaned nematode eggs are used to seed a suitably formatted 96-well plate containing the test substances to be evaluated for antiparasitic activity. Each compound is tested by serial dilution in order to determine its MED. The test compounds are embedded in an agar-based nutritive medium allowing the full development of eggs through to 3rd instar larvae. The plates are incubated for 6 days at 25° C. and 60% relative humidity (RH). Egg-hatching and ensuing larval development are recorded to identify a possible nematodicidal activity. Efficacy is expressed in percent reduced egg hatch, reduced development of L3, or paralysis & death of larvae of all stages.

[4] = tested on: Trichostrongylus colubriformis; assay: as above; details: 0.1 ppm; 6 days at 25° C.; reduced egg hatch, reduced development of L3, or paralysis & death of larvae
Protocol: as §3

| SMILES | Efficacy against Hc [%] (Haemonchus contortus [1]) | Efficacy against Tc [%] [2] | efficacy against Haemonchus contortus (Haemonchus contortus [3]) | efficacy against Trichostrongylus colubriformis [4] |
| --- | --- | --- | --- | --- |
| CC(C#N)(COc1cc(C#N)ccc1Oc1ccc(Cl)cc1Cl)NC(=O)c1ccc(S(F)(F)(F)(F)F)cc1 (stereo not drawn) [Compound 1.2, N-[1-cyano-1-methyl-2-(5-cyano-2-{2,4-dichlorophenoxy}-phenoxy)-ethyl]-4-pentafluorothio-benzamide] | 98% | 100% | – | – |
| CC(C#N)(COc1cc(C#N)ccc1Oc1ccc(F)cc1Br)NC(=O)c1ccc(S(F)(F)(F)(F)F)cc1 (stereo not drawn) [Compound 1.3, N-[1-cyano-1-methyl-2-(5-cyano-2-{2-bromo-4-fluorophenoxy}-phenoxy)-ethyl]-4-pentafluorothio-benzamide] | 100% | 98% | – | – |
| CC(C#N)(COc1cc(C#N)ccc1Oc1ccc(OC(F)(F)F)cc1Cl)NC(=O)c1ccc(S(F)(F)(F)(F)F)cc1 (stereo not drawn) [Compound 1.5, N-[1-cyano-1-methyl-2-(5-cyano-2-{2-chloro-4-trifluoromethoxy-phenoxy}-phenoxy)-ethyl]-4-pentafluorothio-benzamide] | 100% | 99% | – | – |
| CC(C#N)(COc1cc(Cl)ccc1Oc1ccc(Cl)cc1Cl)NC(=O)c1ccc(S(C)(=O)=O)cc1 (stereo not drawn) [Compound 1.10, N-[1-cyano-1-methyl-2-(5-chloro-2-{2,4-dichlorophenoxy}-phenoxy)-ethyl]-4-methylsulfonyl-benzamide] | – | – | more than 90% | more than 90% |
| CC(C#N)(COc1cc(C#N)ccc1C(F)(F)F)NC(=O)c1ccc(S(F)(F)(F)(F)F)cc1 (stereo not drawn) [reference compound] | 85% | 33% | – | – |
| CC(C#N)(COc1ccc(C#N)cc1C(F)(F)F)NC(=O)c1ccc(S(F)(F)(F)(F)F)cc1 (stereo not drawn) [reference compound] | 40% | 23% | – | – |
